Eight compounds from ChEMBL document CHEMBL1148240, “3-hydroxy-quinazoline-2,4-dione as a useful scaffold to obtain selective Gly/NMDA and AMPA receptor antagonists” (Bioorg Med Chem Lett, 2004) can be followed below.

Experiment [1] deals with Glutamate NMDA receptor.
Experiment [2] concerns the target Glutamate NMDA receptor. Nature of the experiment: Inhibitory concentration of compound for depolarization induced by 5 uM NMDA in mouse cortical wedge preparation. The class given is protein-complex assay.
Experiment [3] addresses T1, Glutamate receptor ionotropic, AMPA (Rattus norvegicus, UniProt P19490+P19491+P19492+P19493). Nature of the experiment: Ability of compound to displace [3H]AMPA from Ionotropic glutamate receptor AMPA in rat cerebral cortex synaptic membranes. The experiment is classed as cell membranes, Membrane.
Experiment [4] concerns the target Glutamate receptor ionotropic, NMDA 1 (Rattus norvegicus, UniProt P35439). Nature of the experiment: Ability of compound to displace [3H]glycine from N-methyl-D-aspartate glutamate receptor 1 from in cerebral cortex synaptic membranes. The experiment is classed as cell membranes.
Experiment [5] deals with Glutamate receptor ionotropic, kainate. The experiment is described as follows: Ability of compound to displace [3H]- kainate from ionotropic glutamate receptor kainate in rat cortical membranes. The class given is cell membranes, Membrane.
Experiment [6] addresses T1, Glutamate receptor ionotropic, AMPA.
Description: Inhibitory concentration of compound for depolarization induced by 5 uM S-AMPA in mouse cortical wedge preparation
The species named for experiment [7] is Rattus norvegicus. Nature of the experiment: Ability of compound to inhibit the binding of the channel blocking agent [3H](+)-MK-801 in rat cortical membranes at 100 uM concentration. The note with it: Membrane. The class given is cell membranes.
Experiment [8] is described as follows: Ability of compound to inhibit the binding of the channel blocking agent [3H](+)-MK-801 in rat cortical membranes. The experiment is classed as cell membranes, Membrane.

The structures appear in SMILES notation.

As for `O=C(O)c1cc(O)c2c(Cl)cc(Cl)cc2n1`, the Ki (as a rule, the dissociation constant of the complex between target and ligand, obtained from inhibition or displacement) in experiment [1] came out at 4.7 µM.
With `O=c1[nH]c2cc(Cl)c(-n3cnnc3)cc2c(=O)n1O`, the IC50 – broadly, the midpoint of a concentration-inhibition curve – in experiment [2] is 84 µM; in experiment [5] it was 7 µM; in experiment [6], 4.6 µM. Moreover, the Ki in experiment [3] is 0.25 µM; in experiment [4], greater than 100 µM. Moreover, the inhibition (in general, the relative decrease from the control value, in per cent) in experiment [7] came out at 29%.
Turning to `Nc1cc2c(=O)n(O)c(=O)[nH]c2cc1Cl`, the IC50 in experiment [8] came out at 89 µM; in experiment [5], 70 µM. Also, the Ki in experiment [3] worked out at 9.7 µM; in experiment [4], 10.6 µM.
For `O=c1[nH]c2cc(Cl)cc(Cl)c2c(=O)n1-c1ccccc1`, the Ki in experiment [4] was 23 µM. In other words, the double-digit micromolar range.
Regarding `O=c1[nH]c2cc(Cl)ccc2c(=O)n1O`, the IC50 in experiment [8] was determined as 4.8 µM; in experiment [5] it was 140 µM. For the same compound, the Ki stood at 11.6 µM in experiment [3] and 0.24 µM in experiment [4].
In the same order, the values of `O=c1[nH]c2cc(Cl)c(Cl)cc2c(=O)n1O` are 0.43 µM, 68 µM, 12.5 µM and 0.3 µM.
As for `O=c1[nH]c2cc(Cl)cc(Cl)c2c(=O)n1O`, the IC50 was 0.75 µM in experiment [8], 42 µM in experiment [2], 52 µM in experiment [5] and 33 µM in experiment [6]. For the same compound, the Ki in experiment [3] amounted to 9.8 µM; in experiment [4], 0.2 µM.
Regarding `O=c1[nH]c2cc(Cl)c([N+](=O)[O-])cc2c(=O)n1O`, the IC50 turned out to be 1.7 µM in experiment [8], 36 µM in experiment [2], 19.2 µM in experiment [5] and 29 µM in experiment [6]. Further, the Ki in experiment [3] turned out to be 1.3 µM; in experiment [4], 1.1 µM.
